{"source": "patent US10336762B2", "about": "(priority 2017, dated 2019)", "key": {"IRAK4 enzyme": {"target": "IRAK4 enzyme (Homo sapiens (Human), UniProt Q9NWZ3)", "sequence (Q9NWZ3 whole entry)": "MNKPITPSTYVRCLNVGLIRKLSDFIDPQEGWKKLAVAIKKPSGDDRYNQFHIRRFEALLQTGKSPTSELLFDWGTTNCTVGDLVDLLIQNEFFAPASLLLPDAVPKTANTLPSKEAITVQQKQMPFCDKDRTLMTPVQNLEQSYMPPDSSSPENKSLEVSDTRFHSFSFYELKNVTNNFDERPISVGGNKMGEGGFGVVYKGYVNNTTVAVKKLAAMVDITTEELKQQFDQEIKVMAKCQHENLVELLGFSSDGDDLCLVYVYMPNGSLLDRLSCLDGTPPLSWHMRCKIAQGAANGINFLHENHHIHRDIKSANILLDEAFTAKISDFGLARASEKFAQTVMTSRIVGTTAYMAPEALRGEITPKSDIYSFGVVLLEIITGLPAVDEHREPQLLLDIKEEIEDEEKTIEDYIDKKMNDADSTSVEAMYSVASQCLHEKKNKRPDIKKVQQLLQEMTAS", "assay": "biochemical", "type": "biochemical", "settings": "IRAK4 enzyme, 500 μM ATP"}, "TNFα": {"system": "TNFα", "assay": "cells", "type": "cell-based, human", "settings": "LPS-stimulated human monocytes, read-out: EC50 TNF"}, "[1]": {"settings": "Homo sapiens, Monocyte, TNFα content"}, "[2]": {"settings": "Homo sapiens, Monocyte, TNFα by TR-FRET"}}, "note": "Like-named read-outs stand apart in the source and are kept apart here."}
{"compound": "CC(C)Nc1cc(-c2ccc3cc(C#N)cnn23)ncc1C(=O)N[C@@H]1CCC[C@H](O)C1", "note": "[Example 193, 6-(3-cyanopyrrolo[1,2-b]pyridazin-7-yl)-N-((1R,3S)-3-hydroxycyclohexyl)-4-(isopropylamino) nicotinamide]", "values": [{"measurement": "IC50", "setting": "IRAK4 enzyme; TR-FRET", "result": 3, "unit": "nM"}, {"measurement": "EC50", "setting": "TNFα; [1]", "result": 141, "unit": "nM"}]}
{"compound": "COC(=O)N1CCC12CC(Nc1cc(-c3ccc4cc(C#N)cnn34)ncc1C(=O)NC[C@@H](F)C(C)(C)O)C2", "note": "(stereo partly drawn) [Example 909, (4S,6r)-methyl 6-((2-(3-cyanopyrrolo[1,2-b]pyridazin-7-yl)-5-(((R)-2-fluoro-3-hydroxy-3-methylbutyl)carbamoyl)pyridin-4-yl)amino)-1-azaspiro[3.3]heptane-1-carboxylate]", "values": [{"measurement": "IC50", "setting": "IRAK4 enzyme; TR-FRET", "result": 15, "unit": "nM"}, {"measurement": "EC50", "setting": "TNFα; TNFα by TR-FRET", "result": 372, "unit": "nM"}]}
{"compound": "CC(C)(O)[C@H](F)CNC(=O)c1cnc(-c2ccc3cc(C#N)cnn23)cc1Nc1cncc(F)c1", "note": "[Example 600, (R)-6-(3-cyano-pyrrolo[1,2-b]pyridazin-7-yl)-N-(2-fluoro-3-hydroxy-3-methylbutyl)-4-((5-fluoropyridin-3-yl)amino)nicotinamide]", "values": [{"measurement": "IC50", "setting": "IRAK4 enzyme; TR-FRET (HTRF)", "result": "< 1", "unit": "nM"}, {"measurement": "EC50", "setting": "TNFα; [1]", "result": 72, "unit": "nM"}]}
{"compound": "CC(C)(O)[C@H](F)CNC(=O)c1cnc(-c2ccc3cc(C#N)cnn23)cc1N[C@H]1C[C@H](O)C1", "note": "[Example 169, 6-(3-cyanopyrrolo[1,2-b]pyridazin-7-yl)-N-((R)-2-fluoro-3-hydroxy-3-methylbutyl)-4-(((1r,3R)-3-hydroxycyclobutyl)amino) nicotinamide]", "values": [{"measurement": "IC50", "setting": "IRAK4 enzyme; TR-FRET", "result": 183, "unit": "nM"}, {"measurement": "EC50", "setting": "TNFα; [1]", "result": "> 10000", "unit": "nM"}]}
{"compound": "CC(C)(O)[C@H](F)CNC(=O)c1cnc(-c2ccc3cc(C#N)cnn23)cc1Nc1cnc(N2CC3(CCOCC3)C2)nc1", "note": "[Example 689, (R)-4-((2-(7-oxa-2-azaspiro[3.5]nonan-2-yl)pyrimidin-5-yl)amino)-6-(3-cyanopyrrolo[1,2-b]pyridazin-7-yl)-N-(2-fluoro-3-hydroxy-3-methylbutyl)nicotinamide]", "values": [{"measurement": "IC50", "setting": "IRAK4 enzyme; TR-FRET (HTRF)", "result": 1, "unit": "nM"}, {"measurement": "EC50", "setting": "TNFα; [1]", "result": 180, "unit": "nM"}]}
{"compound": "CC(C)Nc1cc(-c2ccc3cc(C#N)cnn23)ncc1C(=O)NC1CCS(=O)(=O)C1", "note": "(stereo not shown) [Example 123, 6-(3-cyanopyrrolo[1,2-b]pyridazin-7-yl)-N-(1,1-dioxidotetrahydrothiophen-3-yl)-4-(isopropylamino) nicotinamide]", "values": [{"measurement": "IC50", "setting": "IRAK4 enzyme; TR-FRET", "result": 6, "unit": "nM"}, {"measurement": "EC50", "setting": "TNFα; [1]", "result": 421, "unit": "nM"}]}
{"compound": "CC(C)(O)[C@H](F)CNC(=O)c1cnc(-c2ccc3cc(C#N)cnn23)cc1Nc1ccc(Cl)cn1", "note": "[Example 586, (R)-4-((5-chloropyridin-2-yl)amino)-6-(3-cyano-pyrrolo[1,2-b]pyridazin-7-yl)-N-(2-fluoro-3-hydroxy-3-methylbutyl) nicotinamide]", "values": [{"measurement": "IC50", "setting": "IRAK4 enzyme; TR-FRET (HTRF)", "result": 1, "unit": "nM"}, {"measurement": "EC50", "setting": "TNFα; [1]", "result": 118, "unit": "nM"}]}
{"compound": "CC(C)(O)[C@H](F)CNC(=O)c1cnc(-c2ccc3cc(C#N)cnn23)cc1Nc1ccn2ccnc2c1", "note": "[Example 570, (R)-6-(3-cyanopyrrolo[1,2-b]pyridazin-7-yl)-N-(2-fluoro-3-hydroxy-3-methyl-butyl)-4-(imidazo[1,2-a]pyridin-7-ylamino) nicotinamide]", "values": [{"measurement": "IC50", "setting": "IRAK4 enzyme; TR-FRET (HTRF)", "result": "< 1", "unit": "nM"}, {"measurement": "EC50", "setting": "TNFα; [1]", "result": 80, "unit": "nM"}]}
{"compound": "COC(=O)CNC(=O)c1cnc(-c2ccc3cc(C#N)cnn23)cc1NC12CCC(O)(CC1)CC2", "note": "[Example 341, methyl (6-(3-cyano-pyrrolo[1,2-b]pyridazin-7-yl)-4-((4-hydroxy-bicyclo[2.2.2]octan-1-yl)amino)nicotinoyl) glycinate]", "values": [{"measurement": "IC50", "setting": "IRAK4 enzyme; TR-FRET", "result": "< 1", "unit": "nM"}, {"measurement": "EC50", "setting": "TNFα; [1]", "result": 16, "unit": "nM"}]}
{"compound": "CC(C)(O)[C@H](F)CNC(=O)c1cnc(-c2ccc3cc(C#N)cnn23)cc1N[C@H]1CC[C@@H](N)C1", "note": "[Example 310, 4-(((1S,3R)-3-aminocyclopentyl)amino)-6-(3-cyanopyrrolo[1,2-b]pyridazin-7-yl)-N-((R)-2-fluoro-3-hydroxy-3-methylbutyl)nicotinamide]", "values": [{"measurement": "IC50", "setting": "IRAK4 enzyme; TR-FRET", "result": 2, "unit": "nM"}, {"measurement": "EC50", "setting": "TNFα; [1]", "result": 362, "unit": "nM"}]}
{"compound": "CC(C)(O)[C@H](F)CNC(=O)c1cnc(-c2ccc3cc(C#N)cnn23)cc1Nc1ncccn1", "note": "[Example 587, (R)-6-(3-cyanopyrrolo[1,2-b]pyridazin-7-yl)-N-(2-fluoro-3-hydroxy-3-methyl-butyl)-4-(pyrimidin-2-ylamino)nicotinamide]", "values": [{"measurement": "IC50", "setting": "IRAK4 enzyme; TR-FRET (HTRF)", "result": 3, "unit": "nM"}, {"measurement": "EC50", "setting": "TNFα; [1]", "result": 150, "unit": "nM"}]}
{"compound": "CC(C)(O)[C@H](F)CNC(=O)c1cnc(-c2ccc3cc(C#N)cnn23)cc1Nc1ccc(C#N)cc1", "note": "[Example 140, (R)-4-((4-cyanophenyl)amino)-6-(3-cyanopyrrolo[1,2-b]pyridazin-7-yl)-N-(2-fluoro-3-hydroxy-3-methylbutyl)nicotinamide]", "values": [{"measurement": "IC50", "setting": "IRAK4 enzyme; TR-FRET", "result": "< 1", "unit": "nM"}, {"measurement": "EC50", "setting": "TNFα; [1]", "result": 58, "unit": "nM"}]}
{"compound": "COC(=O)C1CC2(CC(NC(=O)c3cnc(-c4ccc5cc(C#N)cnn45)cc3NC(C)C)C2)C1", "note": "(stereo not shown) [Example 60, methyl 6-(6-(3-cyano-pyrrolo[1,2-b]pyridazin-7-yl)-4-(isopropylamino)nicotinamido) spiro[3.3]heptane-2-carboxylate]", "values": [{"measurement": "IC50", "setting": "IRAK4 enzyme; TR-FRET", "result": 1, "unit": "nM"}, {"measurement": "EC50", "setting": "TNFα; [1]", "result": 512, "unit": "nM"}]}
{"compound": "COc1cc(Nc2cc(-c3ccc4cc(C#N)cnn34)ncc2C(=O)NC[C@@H](F)C(C)(C)O)ncn1", "note": "[Example 846, (R)-6-(3-cyanopyrrolo[1,2-b]pyridazin-7-yl)-N-(2-fluoro-3-hydroxy-3-methylbutyl)-4-((6-methoxy-pyrimidin-4-yl)amino) nicotinamide]", "values": [{"measurement": "IC50", "setting": "IRAK4 enzyme; TR-FRET", "result": 2, "unit": "nM"}, {"measurement": "EC50", "setting": "TNFα; [2]", "result": 97, "unit": "nM"}]}
{"compound": "CC(C)(O)[C@H](F)CNC(=O)c1cnc(-c2ccc3cc(C#N)cnn23)cc1NC1CCN(C2COC2)CC1", "note": "[Example 83, (R)-6-(3-cyanopyrrolo[1,2-b]pyridazin-7-yl)-N-(2-fluoro-3-hydroxy-3-methylbutyl)-4-((1-(oxetan-3-yl)piperidin-4-yl)amino) nicotinamide]", "values": [{"measurement": "IC50", "setting": "IRAK4 enzyme; TR-FRET", "result": 1, "unit": "nM"}, {"measurement": "EC50", "setting": "TNFα; [1]", "result": 221, "unit": "nM"}]}
{"compound": "CC(C)(O)[C@H](F)CNC(=O)c1cnc(-c2ccc3cc(C#N)cnn23)cc1Nc1ccc2c(c1)NC(=O)C2", "note": "[Example 573, (R)-6-(3-cyanopyrrolo[1,2-b]pyridazin-7-yl)-N-(2-fluoro-3-hydroxy-3-methyl-butyl)-4-((2-oxoindolin-6-yl)amino)nicotinamide]", "values": [{"measurement": "IC50", "setting": "IRAK4 enzyme; TR-FRET (HTRF)", "result": "< 1", "unit": "nM"}, {"measurement": "EC50", "setting": "TNFα; [1]", "result": 24, "unit": "nM"}]}
{"compound": "COC(=O)c1cncc(Nc2cc(-c3ccc4cc(C#N)cnn34)ncc2C(=O)NC[C@@H](F)C(C)(C)O)c1", "note": "[Example 594, (R)-methyl 5-((2-(3-cyanopyrrolo[1,2-b]pyridazin-7-yl)-5-((2-fluoro-3-hydroxy-3-methylbutyl)carbamoyl)pyridin-4-yl)amino) nicotinate]", "values": [{"measurement": "IC50", "setting": "IRAK4 enzyme; TR-FRET (HTRF)", "result": 2, "unit": "nM"}, {"measurement": "EC50", "setting": "TNFα; [1]", "result": 316, "unit": "nM"}]}
{"compound": "Cc1noc(C)c1CNc1cc(-c2ccc3cc(C#N)cnn23)ncc1C(=O)NC[C@@H](F)C(C)(C)O", "note": "[Example 107, (R)-6-(3-cyanopyrrolo[1,2-b]pyridazin-7-yl)-4-(((3,5-dimethylisoxazol-4-yl)methyl)amino)-N-(2-fluoro-3-hydroxy-3-methylbutyl) nicotinamide]", "values": [{"measurement": "IC50", "setting": "IRAK4 enzyme; TR-FRET", "result": 17, "unit": "nM"}, {"measurement": "EC50", "setting": "TNFα; [1]", "result": 961, "unit": "nM"}]}
{"compound": "N#Cc1cnn2c(-c3cc(NC45CCC(O)(CC4)CC5)c(C(=O)NCC(=O)N4CCC4)cn3)ccc2c1", "note": "[Example 923, N-(2-(azetidin-1-yl)-2-oxoethyl)-6-(3-cyanopyrrolo[1,2-b]pyridazin-7-yl)-4-((4-hydroxybicyclo[2.2.2]octan-1-yl)amino) nicotinamide]", "values": [{"measurement": "IC50", "setting": "IRAK4 enzyme; TR-FRET", "result": "< 1", "unit": "nM"}, {"measurement": "EC50", "setting": "TNFα; [2]", "result": 52, "unit": "nM"}]}
{"compound": "CC(C)(O)[C@H](F)CNC(=O)c1cnc(-c2ccc3cc(C#N)cnn23)cc1Nc1ccc(CO)nc1", "note": "[Example 664, (R)-6-(3-cyanopyrrolo[1,2-b]pyridazin-7-yl)-N-(2-fluoro-3-hydroxy-3-methylbutyl)-4-((6-(hydroxymethyl)pyridin-3-yl)amino)nicotinamide]", "values": [{"measurement": "IC50", "setting": "IRAK4 enzyme; TR-FRET (HTRF)", "result": "< 1", "unit": "nM"}, {"measurement": "EC50", "setting": "TNFα; [1]", "result": 14, "unit": "nM"}]}
